The test system of assay [1] is C. albicans Arf N-myristoylation. Description: Gel shift assay for degree of N-myristoylation of Arf in C. albicans cultures. Conditions: 200 μM, 24° C., strain MONCA105; for reduction in Arf N-myristoylation: 2 h. The class given is cell-based, Candida albicans. An excerpt: N-myristoylation of C. albicans ADP ribosylation factor (Arf), produces a change in its electrophoretic mobility during SDS-polyacrylamide gel electrophoresis. The acylated species migrates more rapidly than the nonmyristoylated species [J. K. Lodge et al, J. Biol. Chem., 269, 2996-3009 (1994)].
Based on these findings, acylation of C. albicans Arf, measured using this protein gel shift assay, was used to define the effects of peptide analog inhibitors of C. albicans NMT on the efficiency of protein N-myristoylation in cultures of this fungal pathogen.
The assay was performed as follows. A single colony of Candida albicans strain MONCA105 NMT, [R. A Weinberg et al, Mol. Micro., in press, (1995)] was innoculated into YPD medium (YPD=1% yeast extract, 2% peptone, 2% dextrose). Cultures were shaken at 24° C. for 12-16 h. Cells were recovered by centrifugation, washed 3 times with sterile PBS, pH 7.4 and resuspended in YPD at an OD600 of 1.0-1.5. Fifty microliters of a 20 mM stock solution of peptide analog (prepared in sterile deionized H2O) were added to a sterile polypropylene tube containing 4.5 mL of fresh YPD medium. Five hundred microliters of the C. albicans culture was then added to the tubes. Controls consisted of no added peptide analog (i.e. water alone).The tubes were incubated at 24° C. with vigorous shaking for 2 hr or 4 hr. For each experiment, duplicate tubes were assayed for each condition and at each time point. Cells were recovered by centrifugation, resuspended in 200 μL of Lysis Buffer (0.125M Tris-HCl, pH 6.8/4% SDS), and transferred to microfuge tubes containing 200 μL of glass beads (bead diameter=425-600 μm, Sigma).The slurry was vortexed 3 times for 1 min each. Between each cycle of vortexing, the tubes were placed on ice for 1 min. The mixture was then placed in a boiling water bath for 10 min, vortexed once again for 1 min and subsequently spun at 10,000×g for 2 min. The cleared supernatant fraction was removed, spun again at 10,000×g for 5 min and the total protein concentration determined. […]
For orientation: In EMSA bound probe runs differently from free probe, usually more slowly.

Another assay has as its system C.para. Briefly: Antifungal susceptibility testing, pH 5.4 assay, different strains of Candida. It counts as cell-based, C.parasilosis. The conditions noted are these: 24 hr.
In the next assay the test system is C.lusi. The description is as above. It counts as cell-based, C.lusitaniae. The conditions noted are these: Clavispora lusitaniae, 24 hr.
Assay [2] concerns Candida albicans, strain B311. Briefly: Antifungal susceptibility testing, microdilution broth, pH 5.4/30° C./YNB. The class given is cell-based. The conditions noted are these: B311, 24 h. The method, then:
Antifungal Screens were set up initially against Candida albicans, strain B311, and Cryotococcus neoformans, strain L210425. Both pathogens, (originally from the stock culture collection, Medical mycology research center, Washington university-Barnes hospital), were obtained from Dr.Kobayashi, Prof.of infectious diseases, Washington University, St.Louis, Mo.
All cultures are maintained at 30° C. on Sabouraud's dextrose agar slants and subcultured at monthly intervals to fresh medium. All inocula for susceptibility testing are prepared in yeast nitogen base(YNB, Difco) broth.
A loopful of growth from Sabouraud dextrose agar slant is inoculated into 4 ml of YNB broth media and incubated at 30° C. overnight (18-24 hrs) with constant agitation (Gyratory Shaker, New Brunswick Scientific). Prior to setting up susceptibility testing, the organisms are counted in a hemocytometer, and diluted as needed into assay media.
(§1) 1) (Assay at DH 5.4/30° C. Incubation/YNB Media).
(§2) Antifungal assays were carried out initially by a modification of the method published by Jones, et. al; (1), and communicated to Searle by Dr. Kobayashi, Washington University. [R. N. Jones et al, Manual of Clinical Microbiology, 4th ed., (1985)]
(§3) The antifungal susceptibility testing consists of a microdilution broth procedure performed in 96 well microtiter plates (Costar, cat#3799). Briefly, test compounds from a 20 mM stock solution in DMSO are diluted into sterile, deionized water (final DMSO concentration not exceeding 1%), to yield 2× the desired concentration (100 uM, 10 uM and 1 uM for an initial screen, or a selected concentration range in serial 2 fold dilutions for EC50 determination). One hundred microliters (100 ul) of each concentration is dispensed into triplicate wells of a 96 well microtiter plate. Appropriate dilutions of a suspension of C.albicans (1×10^6 cells/ml) in 2× YNB is distributed into each of the wells, including growth control wells containing no test compound as well as control wells with 0.5% DMSO. Amphotericin B at 0.05, 1 and 5 ug/ml is included in each assay plate as a positive control. The plates are incubated at 30° C. and cell growth is scored by reading the absorbance at 590 nm on an Elisa plate reader(Dynatech, MR.5000).
(Dilution methods test growth across graded concentrations, often in twofold steps.)

The next assay deals with C.alb (516). Briefly: Antifungal susceptibility testing, pH 5.4 assay, different strains of Candida. It counts as cell-based. Conditions: Candida albicans, 24 hr. The method, then:
as §1, §2, §3

The test system of a further assay is C.glab. Described as above. It counts as cell-based, C.glabrata. Conditions: Nakaseomyces glabratus, 24 hr.
The mark [3] stands for this setting: pH 5.4, read-out: ACTIVITY (EC50) C.alb (B311).

Where two headings read alike, the source gives them in different places. Bounds are passed on as bounds.

Results on 2 molecules are retold here after patent publication US6632921B1, “Seryl-lysyl-based peptide and peptidomimetic inhibitors of N-myristoyl transferase as anti-infective agents” (G. D Searle & Co, priority 1995, dated 2003).

Consider `Cc1nccn1CCCCc1ccc(CC(=O)N[C@H](CO)C(=O)N[C@H](CCCCN)C(=O)N[C@H](CC2CCCCC2)C(=O)O)cc1` [Comparator Compound A, D-Alanine, 3-cyclohexyl-N-[N^2-[N-[[4-[4-(2-methyl-1H-imidazol-1-yl)butyl]phenyl]acetyl]-D-seryl]-D-lysyl]-, bis-trifluoroacetate], for which, in assay [1], the “reduction in Arf N-myristoylation” value is listed as “no detectable reduction”. Besides, the “reduction of Arf acylation” value in assay [1] (4 h) is listed as “no detectable reduction”. The EC50 is > 250 µM in the assay with C.para.; > 250 µM with C.lusi.; > 400 µM in assay [2] (setting [3]); > 400 µM in assay [2] (read-out: caEC50 24 hours); > 250 µM in the assay on C.alb (516); > 250 µM in the assay on C.glab..
For `Cc1nccn1CCCCc1ccc(CC(=O)N[C@@H](CO)C(=O)N[C@@H](CCCCN)C(=O)N[C@@H](CC2CCCCC2)C(=O)O)cc1` [Example 2, L-Alanine, 3-cyclohexyl-N-[N^2-[N-[[4-[4-(2-Methyl-1H-imidazol-1-yl)butyl]phenyl]acetyl]-L-seryl]-L-lysyl]-, bis-trifluoroacetate], the “reduction in Arf N-myristoylation” value in assay [1] was ~10%. The EC50 was 40 µM with C.para.; > 250 µM with C.lusi.; 35 µM in assay [2] (setting [3]); 35 µM in assay [2] (pH 5.4, read-out: caEC50 24 hours); > 250 µM in the assay with C.alb (516); > 250 µM in the assay on C.glab..
